The source of these data is ChEMBL document CHEMBL4742399, “New compounds for use as a therapeutically active substance and in particular for use in the treatment of tumors” (2019).

Experiment [1] addresses T1, Dual specificity tyrosine-phosphorylation-regulated kinase 1B (Homo sapiens, UniProt Q9Y463). Nature of the experiment: Inhibition of GST-tagged DYRK1B (unknown origin) incubated for 30 mins using DYRKtide by ADP-Glo assay.
Target sequence in this assay (Q9Y463 whole entry): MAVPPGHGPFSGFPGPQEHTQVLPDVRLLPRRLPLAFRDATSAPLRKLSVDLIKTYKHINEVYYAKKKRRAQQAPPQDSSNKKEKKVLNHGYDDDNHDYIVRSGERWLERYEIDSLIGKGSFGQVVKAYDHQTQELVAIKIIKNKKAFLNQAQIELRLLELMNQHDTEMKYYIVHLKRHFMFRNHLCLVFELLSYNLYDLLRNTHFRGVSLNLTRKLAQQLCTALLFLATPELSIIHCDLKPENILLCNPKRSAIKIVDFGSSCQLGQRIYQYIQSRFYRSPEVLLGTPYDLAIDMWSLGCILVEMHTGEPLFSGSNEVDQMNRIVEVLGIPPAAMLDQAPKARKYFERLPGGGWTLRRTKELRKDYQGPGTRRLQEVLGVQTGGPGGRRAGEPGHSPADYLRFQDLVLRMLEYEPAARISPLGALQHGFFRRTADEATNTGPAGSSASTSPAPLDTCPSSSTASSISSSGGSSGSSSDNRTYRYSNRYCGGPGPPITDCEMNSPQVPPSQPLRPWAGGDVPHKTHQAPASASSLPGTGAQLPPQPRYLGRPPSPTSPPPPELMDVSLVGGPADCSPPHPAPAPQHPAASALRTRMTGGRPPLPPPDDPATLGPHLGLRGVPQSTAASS
Experiment [2] deals with HT-29. Put plainly: Cytotoxicity against human HT-29 multicellular tumor spheroid cells at 5 uM incubated for 48 hrs by Hoechst and SYTOX staining based assay. The format is functional, cell-based.
Experiment [3] concerns HT-29. Nature of the experiment: Cytotoxicity against human HT-29 multicellular tumor spheroid cells at 0.15 to 20 uM incubated for 48 hrs by Hoechst and SYTOX staining based assay. The format is functional, cell-based. The following applies: dose 0.15-20 µM.
Experiment [4] relates to HT-29. Put plainly: Cytotoxicity against human HT-29 multicellular tumor spheroid cells at 5 uM incubated for 48 hrs under hypoxic conditions by Hoechst and SYTOX staining based assay. The class given is functional, cell-based.
The target of experiment [5] is T1, Dual specificity tyrosine-phosphorylation-regulated kinase 1B. Nature of the experiment: Inhibition of GST-tagged DYRK1B (unknown origin) assessed as reduction p27 Ser10 phosphorylation at 0.1 to 10 uM. The conditions noted are these: dose 0.1-10 µM.
Target sequence in this assay (Q9Y463 whole entry, looked up): as the sequence (Q9Y463 whole entry) above
The target is the same in experiment [6]. Put plainly: Inhibition of DYRK1B un human HT-29 cells assessed as reduction p27 Ser10 phosphorylation at 2.5 to 10 uM. The format is cell-based. The conditions noted are these: dose 2.5-10 µM.
Target sequence in this assay (Q9Y463 whole entry, looked up): as the sequence (Q9Y463 whole entry) above

SMILES strings stand for the structures. pIC50: −log10 of the molar value. Activity calls are given as the source filed them. The calls are words filed in the database; no cut-off is given here.

Consider `CCNc1nccc(-c2cnn(-c3ccccc3F)c2)n1`, for which the pIC50 in experiment [1] is 5.52.
Same read-out and setting: then `Fc1ccccc1-n1cc(-c2ccnc(NC3CCOCC3)n2)cn1`, with 5.70; and `COc1ccccc1-n1cc(-c2ccnc(NCc3c(C)n[nH]c3C)n2)cn1`, with 5.52.
On to `Fc1ccccc1-n1cc(-c2ccnc(NCc3ccncc3)n2)cn1`, for which the pIC50 in experiment [1] is 5.40. Moreover, the result in experiment [2], in experiment [3] and in experiment [4] was Active. Moreover, the inhibition entry in experiment [5] and in experiment [6] was “Active” throughout.
